Measurements from patent US20250171420A1 (Monte Rosa Therapeutics, Inc., priority 2022, published 2025).

Tests used:
[1] = target: T1, CK1α (Homo sapiens, UniProt P48729); assay: CK1α NanoBit Assay (HiBiT-tagged CSNK1A1, HEK293 clonal lines); type: cell-based; settings: HEK293 HiBiT-CSNK1A1/LgBiT cells, 24 h incubation
T1 construct: HEK293 clonal lines with CRISPR KI HiBiT tag on CSNK1A1
Outline: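 HEK293 clones carrying a CRISPR knock-in HiBiT tag on CSNK1A1 and stably expressing LgBiT are treated with compound for 24 hours at 37° C, 5% CO2, then read by luminescence. Response is normalized as 100*(S−N)/(P−N) against plate negative and positive controls, and DC50 values are derived.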

[2] = target: CRBN/DDB1 (Homo sapiens, UniProt Q96SW2); assay: HTRF binding assay (displacement of Cy5-thalidomide probe from CRBN/DDB1); settings: CRBN/DDB1 2.5 nM, Cy5-Thalidomide 100 nM, 30 min; geometric mean; read-out: HTRF_Thali_Disp_DR_geo_IC50
Text: Binding of test compounds to CRBN/DDB1 was monitored in an HTRF assay using 1-[5-({2-[2-(2-{[2-(2,6-dioxopiperidin-3-yl)-1,3-dioxo-2,3-dihydro-1H-isoindol-4-yl]oxy}acetamido)ethoxy]ethyl}carbamoyl)pentyl]-3,3-dimethyl-2-[(1E,3E)-5-[(2E)-1,3,3-trimethyl-5-sulfo-2,3-dihydro-1H-indol-2-ylidene]penta-1,3-dien-1-yl]-3H-indol-1-ium-5-sulfonate as a fluorescent probe. In this assay, compounds displace the fluorescently labeled thalidomide-based probe bound to CRBN and fluorescence is monitored with increasing compound concentration. Assays were conducted in Greiner white 384 well HiBase plates (Cat. No 784075-25) in 10 μL total volume. A one pot detection solution of CRBN/DDB1 (2.5 nM), anti-His Terbium Cryptate Gold (1×, PerkinElmer Cat. #: 61HI2TLB), and Cy5-Thalidomide (100 nM, Tenova Cat.: T52461) was prepared in 20 mM HEPES, 20 mM NaCl, 0.2 mM TCEP, 0.2 mM EDTA, and 0.005% Tween20 was dispensed to each assay plate. Test compounds were stored in dry, ambient temperatures at 10 mM. A 10-point, 1:3 dilution series was prepared from 10 mM stock concentrations in Echo-compatible LDV plates. 10 nL of each compound dilution series was dispensed into assays wells using an Echo 650 (Labcyte inc. USA). 10 nL of 10 mM lenalidomide (Selleckchem Cat no. S1029) was transferred into the active-control wells for the assay and 10 nL of DMSO was transferred into the negative control wells. The assay was then allowed to incubate for 30 min at ambient temperature after transferring the test compounds. Plate measurements were taken on a Pherastar FSX (BMG Labtech, Germany) using the HTRF Red filter (Ex. 337 nm, em1: 620 nm, em2: 665 nm) (Flashes: 50, Integration time: 60-400 μs, Z-height: 10 mm, Ratio-multiplier: 10,000). Analysis, HTRF ratio and IC50 values were derived using KNIME analytics (KNIME Zurich) transformation and fitting within Collaborative Drug Discovery (Collaborative Drug Discovery USA) using a 4-parameter logistic fit. HTRF ratio calculation was performed using the following formula: […]
where Y represents the HTRF ratio response (as defined previously), X the compound concentration in μM, Ymin the minimum response plateau, Ymax the maximum response plateau, IC50 the concentration of agonist that gives a response half way between Ymin and Ymax and HillSlope the steepness of the family of curves. No fitting model constraints was applied on Ymin, or Ymax whilst IC50>0 and −0.5>HillSlope>−3
Ki values were derived from the geometric mean of the IC50 values using the Cheng-Prusoff transformation:
where [L] represents the concentration of fluorescent probe in μM, Kd the affinity (binding constant) of the fluorescent probe in units of μM and IC50 the concentration of agonist that gives a response halfway between Ymin and Ymax (as described in 1.2.1)
Analysis and IC50 values were derived using KNIME analytics (KNIME, Zurich) transformation and fitting within Collaborative Drug Discovery (Collaborative Drug Discovery, USA) as described in 1.2.1. Ki values were derived from the geometric mean of the IC50 values using the Cheng-Prusoff transformation as described in 2.2.2. Data was visualized in GraphPad Prism 8.1.2 (GraphPad, USA) and reported as mean and standard deviation. Microsoft Office Excel 2012 (Redmond, WA) was used for calculation of mean and standard deviation.
IC50 data are reported in Table 3 for compounds in Table 1. In Table 3 below, According to the code, A represents a IC50 value of ≤0.1 μM, B represents a IC50 value>0.1 μM and ≤1 μM, C represents an IC50 value>1 μM.

T1 sequence (P48729 whole entry): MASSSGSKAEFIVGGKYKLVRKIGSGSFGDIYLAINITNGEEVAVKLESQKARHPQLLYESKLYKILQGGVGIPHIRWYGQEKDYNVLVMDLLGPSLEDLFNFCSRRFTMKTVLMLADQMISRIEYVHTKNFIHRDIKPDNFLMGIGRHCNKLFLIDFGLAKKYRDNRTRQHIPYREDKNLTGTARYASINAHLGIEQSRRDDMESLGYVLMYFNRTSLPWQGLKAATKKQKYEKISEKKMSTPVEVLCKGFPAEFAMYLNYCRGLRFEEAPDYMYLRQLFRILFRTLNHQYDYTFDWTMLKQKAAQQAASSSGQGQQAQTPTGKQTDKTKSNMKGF
T1 sequence (Q96SW2 whole entry, further chain): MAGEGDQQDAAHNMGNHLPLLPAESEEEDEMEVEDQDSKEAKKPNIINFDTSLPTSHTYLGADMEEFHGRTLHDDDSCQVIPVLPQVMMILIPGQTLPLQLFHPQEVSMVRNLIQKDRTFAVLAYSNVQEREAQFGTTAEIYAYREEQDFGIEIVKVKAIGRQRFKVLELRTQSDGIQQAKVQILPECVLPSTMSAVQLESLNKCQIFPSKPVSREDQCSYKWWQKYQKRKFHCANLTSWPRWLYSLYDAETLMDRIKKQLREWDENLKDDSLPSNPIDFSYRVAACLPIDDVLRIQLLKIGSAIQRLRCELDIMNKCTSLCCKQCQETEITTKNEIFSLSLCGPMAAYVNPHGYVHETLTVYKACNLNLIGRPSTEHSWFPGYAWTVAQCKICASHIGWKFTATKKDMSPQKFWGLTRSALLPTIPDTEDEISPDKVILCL
T1 sequence (Q16531 2-1140 partner limits assumed): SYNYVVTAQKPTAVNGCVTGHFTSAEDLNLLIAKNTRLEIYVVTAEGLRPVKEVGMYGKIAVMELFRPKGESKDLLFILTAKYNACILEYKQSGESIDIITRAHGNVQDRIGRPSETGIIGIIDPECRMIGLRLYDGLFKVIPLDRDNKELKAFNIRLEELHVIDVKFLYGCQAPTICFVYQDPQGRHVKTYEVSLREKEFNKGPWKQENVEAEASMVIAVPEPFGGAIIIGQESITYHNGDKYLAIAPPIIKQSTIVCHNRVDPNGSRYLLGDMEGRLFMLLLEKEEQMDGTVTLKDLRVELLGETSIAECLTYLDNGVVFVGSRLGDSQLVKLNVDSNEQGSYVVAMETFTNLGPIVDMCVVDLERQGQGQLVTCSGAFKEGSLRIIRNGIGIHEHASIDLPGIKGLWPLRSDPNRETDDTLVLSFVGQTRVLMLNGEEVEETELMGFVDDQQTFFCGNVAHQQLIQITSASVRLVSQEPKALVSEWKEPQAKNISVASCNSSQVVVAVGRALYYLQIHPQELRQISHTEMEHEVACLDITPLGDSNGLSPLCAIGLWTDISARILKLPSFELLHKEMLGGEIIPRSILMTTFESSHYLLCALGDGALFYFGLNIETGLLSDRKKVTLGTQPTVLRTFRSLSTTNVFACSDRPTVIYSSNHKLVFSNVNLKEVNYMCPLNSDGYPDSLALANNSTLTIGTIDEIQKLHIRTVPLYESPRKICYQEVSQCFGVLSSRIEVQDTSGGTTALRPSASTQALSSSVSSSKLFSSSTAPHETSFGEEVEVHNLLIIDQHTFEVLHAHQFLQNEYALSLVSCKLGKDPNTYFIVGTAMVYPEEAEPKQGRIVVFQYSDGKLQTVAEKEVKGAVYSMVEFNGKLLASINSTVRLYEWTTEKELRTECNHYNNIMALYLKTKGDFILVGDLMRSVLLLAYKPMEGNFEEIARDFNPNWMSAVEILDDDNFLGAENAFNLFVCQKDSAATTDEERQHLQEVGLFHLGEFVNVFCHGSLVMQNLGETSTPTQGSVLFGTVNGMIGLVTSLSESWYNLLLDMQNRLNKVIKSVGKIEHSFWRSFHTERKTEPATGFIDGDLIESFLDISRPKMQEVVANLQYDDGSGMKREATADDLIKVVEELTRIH
Sequence of CRBN/DDB1 (Q96SW2 whole entry, species assumed): as the sequence (Q96SW2 whole entry, further chain) above
Sequence of CRBN/DDB1 (Q16531 whole entry partner, species assumed): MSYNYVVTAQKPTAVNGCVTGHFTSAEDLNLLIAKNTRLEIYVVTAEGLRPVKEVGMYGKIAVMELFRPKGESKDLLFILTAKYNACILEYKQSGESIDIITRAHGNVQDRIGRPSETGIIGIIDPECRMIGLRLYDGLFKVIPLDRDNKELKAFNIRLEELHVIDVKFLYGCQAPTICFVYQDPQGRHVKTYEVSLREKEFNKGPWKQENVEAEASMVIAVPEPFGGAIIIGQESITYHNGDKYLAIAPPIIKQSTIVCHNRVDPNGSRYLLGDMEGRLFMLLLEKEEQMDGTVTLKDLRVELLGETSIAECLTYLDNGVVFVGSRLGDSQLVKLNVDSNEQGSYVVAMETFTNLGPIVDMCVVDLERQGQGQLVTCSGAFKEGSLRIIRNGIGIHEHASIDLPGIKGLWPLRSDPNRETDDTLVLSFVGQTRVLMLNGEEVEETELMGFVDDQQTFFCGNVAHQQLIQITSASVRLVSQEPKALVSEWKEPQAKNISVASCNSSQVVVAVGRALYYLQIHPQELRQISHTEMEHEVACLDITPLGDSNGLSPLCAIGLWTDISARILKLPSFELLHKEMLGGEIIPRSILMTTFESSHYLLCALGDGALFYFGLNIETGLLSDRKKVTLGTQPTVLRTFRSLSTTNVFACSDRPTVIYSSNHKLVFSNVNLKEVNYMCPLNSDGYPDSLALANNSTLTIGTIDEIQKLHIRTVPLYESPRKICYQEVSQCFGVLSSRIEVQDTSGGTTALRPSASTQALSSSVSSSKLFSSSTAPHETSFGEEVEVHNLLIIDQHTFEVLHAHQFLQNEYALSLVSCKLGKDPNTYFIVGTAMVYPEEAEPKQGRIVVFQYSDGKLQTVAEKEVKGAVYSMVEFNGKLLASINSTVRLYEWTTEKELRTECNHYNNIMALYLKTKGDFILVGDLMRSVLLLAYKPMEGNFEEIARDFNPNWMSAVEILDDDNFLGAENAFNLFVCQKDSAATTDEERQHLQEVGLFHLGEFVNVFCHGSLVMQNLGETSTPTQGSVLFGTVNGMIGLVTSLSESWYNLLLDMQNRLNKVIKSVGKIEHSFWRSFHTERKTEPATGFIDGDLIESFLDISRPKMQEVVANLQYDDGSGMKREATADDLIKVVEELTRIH

DC50 [1] [µM]	IC50 [2] [nM]	SMILES
< 0.1	100 to 1000	Cc1cc(C)c2c(c1)N(C(=O)Nc1ccc3c(c1)CN(C1CCC(=O)NC1=O)C3=O)CC2 (centres unmarked) [Compound 209]
< 0.1	> 1000	O=C1CCC(N2Cc3cc(NC(=O)N4CCc5cc(Cl)ccc54)ccc3C2=O)C(=O)N1 (centres unmarked) [Compound 197, 5-chloro-N-(2-(2,6-dioxopiperidin-3-yl)-1-oxoisoindolin-5-yl)indoline-1-carboxamide]
< 0.1	100 to 1000	COCc1ccc2c(c1)CCN2C(=O)Nc1ccc2c(c1)CN(C1CCC(=O)NC1=O)C2=O (centres unmarked) [Compound 330, N-(2-(2,6-dioxopiperidin-3-yl)-1-oxoisoindolin-5-yl)-5-(methoxymethyl)indoline-1-carboxamide]
0.1 to 1	100 to 1000	CN1CCN(C(=O)Nc2ccc3c(c2)CN(C2CCC(=O)NC2=O)C3=O)c2ccccc21 (centres unmarked) [Compound 286]
< 0.1	100 to 1000	O=C1CCC(N2Cc3cc(NC(=O)N4CCc5cccc(F)c54)ccc3C2=O)C(=O)N1 (centres unmarked) [Compound 163, N-(2-(2,6-dioxopiperidin-3-yl)-1-oxoisoindolin-5-yl)-7-fluoroindoline-1-carboxamide]
< 0.1	100 to 1000	O=C1CCC(N2Cc3cc(NC(=O)N4CCc5ccncc54)ccc3C2=O)C(=O)N1 (centres unmarked) [Compound 105, N-(2-(2,6-dioxopiperidin-3-yl)-1-oxoisoindolin-5-yl)-2,3-dihydro-1H-pyrrolo[2,3-c]pyridine-1-carboxamide]
< 0.1	100 to 1000	Cc1cc2c(cc1C)N(C(=O)Nc1ccc3c(c1)CN(C1CCC(=O)NC1=O)C3=O)CC2 (centres unmarked) [Compound 171, N-(2-(2,6-dioxopiperidin-3-yl)-1-oxoisoindolin-5-yl)-5,6-dimethylindoline-1-carboxamide]
< 0.1	100 to 1000	COC(C)c1cccc2c1CCN2C(=O)Nc1ccc2c(c1)CN(C1CCC(=O)NC1=O)C2=O (centres unmarked) [Compound 343, N-(2-(2,6-dioxopiperidin-3-yl)-1-oxoisoindolin-5-yl)-4-(1-methoxyethyl)indoline-1-carboxamide]

Continued, molecule first:

SMILES	DC50 [1] [µM]	IC50 [2] [nM]
CC1(c2ccccc2)CN(C(=O)Nc2ccc3c(c2)CN(C2CCC(=O)NC2=O)C3=O)C1 (centres unmarked) [Compound 109, N-(2-(2,6-dioxopiperidin-3-yl)-1-oxoisoindolin-5-yl)-3-methyl-3-phenylazetidine-1-carboxamide]	0.1 to 1	100 to 1000
CCOC[C@@H]1Cc2ccccc2N1C(=O)Nc1ccc2c(c1)CN(C1CCC(=O)NC1=O)C2=O (stereo partly drawn) [Compound 313, (2S)—N-(2-(2,6-dioxopiperidin-3-yl)-1-oxoisoindolin-5-yl)-2-(ethoxymethyl)indoline-1-carboxamide]	< 0.1	100 to 1000
COC[C@@H]1Cc2cc(C(F)(F)F)ccc2N1C(=O)Nc1ccc2c(c1)CN(C1CCC(=O)NC1=O)C2=O (stereo partly drawn) [Compound 318, (2S)—N-(2-(2,6-dioxopiperidin-3-yl)-1-oxoisoindolin-5-yl)-2-(methoxymethyl)-5-(trifluoromethyl)indoline-1-carboxamide]	< 0.1	100 to 1000
CC1(C)Cc2ccccc2N1C(=O)Nc1ccc2c(c1)CN(C1CCC(=O)NC1=O)C2=O (centres unmarked) [Compound 132]	< 0.1	100 to 1000
COCC1c2cc(C(F)(F)F)ccc2CN1C(=O)Nc1ccc2c(c1)CN(C1CCC(=O)NC1=O)C2=O (centres unmarked) [Compound 301]	< 0.1	100 to 1000
O=C1CCC(N2Cc3cc(NC(=O)N4CCc5ccc(C6CCOCC6)cc54)ccc3C2=O)C(=O)N1 (centres unmarked) [Compound 365, N-(2-(2,6-dioxopiperidin-3-yl)-1-oxoisoindolin-5-yl)-6-(tetrahydro-2H-pyran-4-yl)indoline-1-carboxamide]	0.1 to 1	100 to 1000
CN(C)C[C@@H]1Cc2ccccc2N1C(=O)Nc1ccc2c(c1)CN(C1CCC(=O)NC1=O)C2=O (stereo partly drawn) [Compound 323, (2S)-2-((dimethylamino)methyl)-N-(2-(2,6-dioxopiperidin-3-yl)-1-oxoisoindolin-5-yl)indoline-1-carboxamide]	0.1 to 1	100 to 1000
O=C1CCC(N2Cc3cc(NC(=O)N4CC(c5ccccc5)C4)ccc3C2=O)C(=O)N1 (centres unmarked) [Compound 111, N-(2-(2,6-dioxopiperidin-3-yl)-1-oxoisoindolin-5-yl)-3-phenylazetidine-1-carboxamide]	0.1 to 1	100 to 1000
CC1c2ccccc2CCN1C(=O)Nc1ccc2c(c1)CN(C1CCC(=O)NC1=O)C2=O (centres unmarked) [Compound 216, N-(2-(2,6-dioxopiperidin-3-yl)-1-oxoisoindolin-5-yl)-1-methyl-3,4-dihydroisoquinoline-2(1H)-carboxamide]	< 0.1	100 to 1000
O=C1CCC(N2Cc3cc(NC(=O)N4CCc5cc(C6COC6)ccc54)ccc3C2=O)C(=O)N1 (centres unmarked) [Compound 346, N-(2-(2,6-dioxopiperidin-3-yl)-1-oxoisoindolin-5-yl)-5-(oxetan-3-yl)indoline-1-carboxamide]	< 0.1	< 100
C[C@@H]1Cc2cccc(F)c2N1C(=O)Nc1ccc2c(c1)CN(C1CCC(=O)NC1=O)C2=O (stereo partly drawn) [Compound 350, (2R)—N-(2-(2,6-dioxopiperidin-3-yl)-1-oxoisoindolin-5-yl)-7-fluoro-2-methylindoline-1-carboxamide]	< 0.1	100 to 1000
C[C@@H]1Cc2c(F)cccc2N1C(=O)Nc1ccc2c(c1)CN(C1CCC(=O)NC1=O)C2=O (stereo partly drawn) [Compound 354, (2R)—N-(2-(2,6-dioxopiperidin-3-yl)-1-oxoisoindolin-5-yl)-4-fluoro-2-methylindoline-1-carboxamide]	< 0.1	100 to 1000
O=C1CCC(N2Cc3cc(NC(=O)N4CCc5ccc(C6COC6)cc54)ccc3C2=O)C(=O)N1 (centres unmarked) [Compound 347, N-(2-(2,6-dioxopiperidin-3-yl)-1-oxoisoindolin-5-yl)-6-(oxetan-3-yl)indoline-1-carboxamide]	0.1 to 1	100 to 1000
O=C1CCC(N2Cc3cc(NC(=O)N4CCc5ccc(-n6cccn6)cc54)ccc3C2=O)C(=O)N1 (centres unmarked) [Compound 290]	< 0.1	100 to 1000
O=C1CCC(N2Cc3cc(NC(=O)N4Cc5cc(C6CC6)ccc5C45COC5)ccc3C2=O)C(=O)N1 (centres unmarked) [Compound 302, 5-cyclopropyl-N-(2-(2,6-dioxopiperidin-3-yl)-1-oxoisoindolin-5-yl)spiro[isoindoline-1,3′-oxetane]-2-carboxamide]	< 0.1	100 to 1000
CN(C)C(=O)[C@@H]1Cc2ccccc2N1C(=O)Nc1ccc2c(c1)CN(C1CCC(=O)NC1=O)C2=O (stereo partly drawn) [Compound 327, (2S)-N1-(2-(2,6-dioxopiperidin-3-yl)-1-oxoisoindolin-5-yl)-N2,N2-dimethylindoline-1,2-dicarboxamide]	0.1 to 1	100 to 1000
COC[C@H]1Cc2cc(C(F)(F)F)ncc2N1C(=O)Nc1ccc2c(c1)CN(C1CCC(=O)NC1=O)C2=O (stereo partly drawn) [Compound 295, (2R)—N-(2-(2,6-dioxopiperidin-3-yl)-1-oxoisoindolin-5-yl)-2-(methoxymethyl)-5-(trifluoromethyl)-2,3-dihydro-1H-pyrrolo[2,3-c]pyridine-1-carboxamide]	< 0.1	100 to 1000
